Laboratory results: ChEMBL document CHEMBL1149046, “Insect Inhibitory Steroidal Saccharide Esters from Physalis peruviana” (J Nat Prod, 1994)

Columns and labels:
Assay type in all cases: organism-based
Details in all cases: artemia, in vivo
[1] = Toxicity in brine shrimp at 1000 ppm
[2] = Toxicity in brine shrimp at 500 ppm
[3] = Toxicity in brine shrimp at 250 ppm

CC(=O)OC[C@H]1O[C@@H](OC(=O)/C(C)=C(\C)C[C@@H](O)[C@@H](C)[C@H]2CC[C@H]3[C@@H]4CC=C5C[C@@H](O[C@@H]6O[C@H](CO)[C@@H](O)[C@H](O)[C@H]6O)C[C@H](O)[C@]5(C)[C@H]4CC[C@]23C)[C@H](O[C@@H]2O[C@H](COC(C)=O)[C@@H](O[C@@H]3O[C@H](CO)[C@@H](O)[C@H](O)[C@H]3O)[C@H](O)[C@H]2O)[C@@H](O)[C@@H]1O
100%: survival at 1000 ppm [1] | survival at 500 ppm [2] | survival at 250 ppm [3]

C/C(C[C@@H](O)[C@@H](C)[C@H]1CC[C@H]2[C@@H]3CC=C4C[C@@H](O[C@@H]5O[C@H](CO)[C@@H](O)[C@H](O)[C@H]5O)C[C@H](O)[C@]4(C)[C@H]3CC[C@]12C)=C(/C)C(=O)O[C@@H]1O[C@H](CO)[C@@H](O)[C@H](O)[C@H]1O[C@@H]1O[C@H](CO)[C@@H](O)[C@H](O)[C@H]1O
100%: survival at 1000 ppm [1] | survival at 500 ppm [2] | survival at 250 ppm [3]

CC(=O)OC[C@H]1O[C@@H](OC(=O)/C(C)=C(\C)C[C@@H](O)[C@@H](C)[C@H]2CC[C@H]3[C@@H]4CC=C5C[C@@H](O)C[C@H](O)[C@]5(C)[C@H]4[C@@H](O)C[C@]23C)[C@H](O[C@@H]2O[C@H](CO)[C@@H](O)[C@H](O)[C@H]2O)[C@@H](O)[C@@H]1O
100%: survival at 1000 ppm [1] | survival at 500 ppm [2] | survival at 250 ppm [3]

C/C(C[C@@H](O)[C@@H](C)[C@H]1CC[C@H]2[C@@H]3CC=C4C[C@@H](O)C[C@H](O)[C@]4(C)[C@H]3[C@@H](O)C[C@]12C)=C(/C)C(=O)O[C@@H]1O[C@H](CO)[C@@H](O)[C@H](O)[C@H]1O
100%: survival at 1000 ppm [1] | survival at 500 ppm [2] | survival at 250 ppm [3]

CC(=O)OC[C@H]1O[C@@H](OC(=O)/C(C)=C(\C)C[C@@H](O)[C@@H](C)[C@H]2CC[C@H]3[C@@H]4CC=C5C[C@@H](O[C@@H]6O[C@H](CO)[C@@H](O)[C@H](O)[C@H]6O)C[C@H](O)[C@]5(C)[C@H]4CC[C@]23C)[C@H](O[C@@H]2O[C@H](CO)[C@@H](O[C@@H]3O[C@H](CO)[C@@H](O)[C@H](O)[C@H]3O)[C@H](O)[C@H]2O)[C@@H](O)[C@@H]1O
100%: survival at 1000 ppm [1] | survival at 500 ppm [2] | survival at 250 ppm [3]

CC(=O)OC[C@H]1O[C@@H](OC(=O)/C(C)=C(\C)C[C@@H](O)[C@@H](C)[C@H]2CC[C@H]3[C@@H]4CC=C5C[C@@H](O[C@@H]6O[C@H](CO)[C@@H](O)[C@H](O)[C@H]6O)C[C@H](O)[C@]5(C)[C@H]4CC[C@]23C)[C@H](O[C@@H]2O[C@H](CO)[C@@H](O)[C@H](O)[C@H]2O)[C@@H](O)[C@@H]1O
100%: survival at 1000 ppm [1] | survival at 500 ppm [2] | survival at 250 ppm [3]
